Assay [1] is described as follows: Body weight of C57BL/6J mice fed creamer-containing high fat diet with allulose for 8 weeks. In kind it is in vivo. As to conditions: for Body weight: HFD + creamer + 5 wt % allulose (PRA), mean ± SE, in g (unit assumed). The source says:
(§1) 16 C57BL/6J mice (male, 4-week-old) were purchased from the Jackson Laboratory (USA) and used. The mice were allowed to adapt to the breeding environment with the lab-chow diet (Purina Co., USA) for 4 weeks. Then, the mice were divided, by using the randomized block design, into a negative control group (PR: 8 mice), in which allulose was not fed, and an experimental group (PRA: 8 mice), in which allulose was fed, and the mice were fed with diet for 8 weeks.
For the diet of the negative control group, AIN-76 diet and HFD were applied, in which creamer [“Prima”, Dongsuh Foods Corporation, Korea; raw materials: 30-38 wt % of hydrogenated vegetable lipid (hydrogenated coconut oil, hydrogenated palm oil), starch syrup (including maltose), sodium caseinate, potassium phosphate dibasic, calcium phosphate tribasic] was used as the vegetable lipid. For the diet of the experimental group, 5 wt % of sugar among the components of the diet of the negative control group were replaced with allulose (crystal allulose, 98 wt % or higher of allulose based on dry solid content, CJ Cheiljedang) and used (Table 1). All animal experiments were conducted with the approval of the Ethical Commission for Animal Experimentation, Kyungpook National University (Approval No.: KNU-2013-18).
Pair feeding was performed based on the experimental group so as to feed the same level of iso-energetic diet, and thereby the effect of calorie reduction by allulose was excluded. The diet was refrigerated at 4° C. during the breeding period. The mice were bred in individual cages under constant temperature (25±2° C.), constant humidity (50±5%), and dark-light cycles at 12 hour intervals.
Dietary intake was measured at constant time every day, and body weight was measured at constant time every week.

Assay [2] is described as follows: Fecal lipid excretion in C57BL/6J mice fed creamer-containing high fat diet with allulose for 8 weeks. In kind it is in vivo.
Excerpt: as §1
For the diet of the negative control group, AIN-76 diet and HFD were applied, in which creamer [“Prima”, Dongsuh Foods Corporation, Korea; raw materials: 30-38 wt % of hydrogenated vegetable lipid (hydrogenated coconut oil, hydrogenated palm oil), starch syrup (including maltose), sodium caseinate, potassium phosphate dibasic, calcium phosphate tribasic] was used as the vegetable lipid. […]
Among them, 200 μL each were collected for the measurement of cholesterol and free fatty acids and dried again under nitrogen gas, and those for the measurement of neutral lipid and total cholesterol were dissolved in 500 μL of ethanol. […] At the time of quantification of total cholesterol and neutral lipid, 3 mM cholic acid (sodium salt) as an emulsifier and 0.5% Triton X-100 (for removal of turbidity that occurs at the time of color development) were mixed and used.
For the measurement of total cholesterol, 10 μL of the solution dissolved in ethanol (500 μL) and the emulsifier (690 μL) were mixed, and then 800 μL of a test solution (Asan Pharmaceutical kit) for measurement applying the enzyme method of Allain et al. (1974) was mixed. For quantification of both in forms of free cholesterol (FC) and cholesterol ester (CE), CE was converted to FC and fatty acid by cholesterol esterase. […] The obtained product and H2O2 as a substrate were reacted with peroxidase, phenol, and 4-amino-antipyrine to obtain a red coloring material, and then the absorbance was measured at 500 nm. The measured value was quantified by comparing with the cholesterol standard curve. […]

Where [3] appears, read: experimental group (PRA) compared to negative control group (PR).

Take `O=C(CO)C(O)C(O)C(O)CO` [allulose, Allulose (D-psicose)]: the Body weight in assay [1] (0 week of diet) is on record as 21.47 ± 0.50. Also, the Body weight in assay [1] (8th week of diet) amounted to 27.41 ± 0.48. The “Inhibitory effect against weight gain” value in assay [1] (experimental group (PRA) vs negative control (PR), from 1st week of diet, 8 weeks) is on record as “significantly inhibited”. Further, in assay [2] (allulose ingested along with the vegetable lipid in creamer), the “Excretion of lipid as feces” value is recorded as “promoted”. Moreover, in assay [2] (setting [3]), the “Amount of free fatty acids in the feces vs negative control” value is given as “significantly increased” and the “Amount of triglycerides in the feces vs negative control” value was “significantly increased”.

Source of the values: patent publication US11968990B2, “Creamer comprising vegetable lipids and allulose” (CJ CHEILJEDANG CORPORATION, priority 2016, dated 2024).
